≈ marks a conversion by molar mass, not a printed value.
Experiments:
[1] = Evaluation of stability (absorbance increase of measurement solution over 6 hours); conditions: FIG. 3; absorbance increase per hour over 6 hours
Description: To 0.02 mmol of each compound, 75 μL of RO water and 100 μL of a 0.5 M MOPS solution (pH 7.2) were added, and the compound was dissolved therein. The solution was used as a sample.
To 175 μL of this sample, 10 μL of the GDH solution, 5 μL of the m-PMS solution, and 10 μL of the nickel solution, all of which had been produced in the same manner as in the above section (Evaluation of sensitivity), were added, and thereby a measurement solution was produced.
As a control, 85 μL of RO water and 100 μL of a 0.5 M MOPS solution (pH 7.2) were added to 11.6 mg of 2-benzothiazolyl-3-(4-carboxy-2-methoxyphenyl)-5-[4-(2-sulfoethylcarbamoyl)phenyl]-2H-tetrazolium (WST-4), and the compound was dissolved. Thus, a control sample was produced. […] Thus, a control reaction solution was produced.
At the time of production of the measurement solution (0 hour), and after 1 hour, 2 hours, and 6 hours from the production, the spectra of the measurement solutions produced as described above were measured using a spectrophotometer (measurement cell length: 50 μm) (n=1). For each spectrum, the absorbance at the maximum absorption wavelength (λmax) of each compound as determined above was measured. The absorbances measured at the time of production of the measurement solution (0 hour) and after 6 hours from the production were designated as Abs0 h and Abs6 h, respectively. […]

[2] = Maximum absorption wavelength (λmax) of formazan-nickel chelate by spectrophotometer; assay type: physicochemical; conditions: chelate of formazan and nickel ion, aqueous MOPS, cell length 10 mm, n=1
Description: 10 mM aqueous solution of MOPS was added to each of the formazan compounds so as to obtain a final concentration of […], and thereby 100 μL of a sample was produced. At this time, all of the samples were red-brown in color. Apart from this, a 1 M aqueous solution of nickel ion was produced.
For mixed solutions of various compounds in an aqueous solution of formazan and an aqueous solution of nickel, the spectra were measured with a spectrophotometer (measurement cell length: 10 mm) (n=1). Based on each of the spectra, the maximum absorption wavelength (λmax) (nm) of each of the compounds in formazan was determined. From FIG. 1, it is understood that the maximum absorption wavelength (λmax) of the chelate compound of formazan compound 1 and nickel ion is 630 nm.
The absorbance at the maximum absorption wavelength is denoted as 100%.

[3] = Evaluation of sensitivity (colour development with glucose, GDH-FAD, m-PMS, nickel; gradient versus WST-4); conditions: for Sensitivity, comparison with Comparative Example 5 (ratio) / Sensitivity, comparison with Comparative Example 5 (rating): gradientsample/gradientWST-4; for Sensitivity, comparison with Comparative Example 5 (rating): absorbance at λmax versus glucose concentration, cell length 50 μm
Description: Separately, 100 μL of RO water was added to 7 mg of a glucose dehydrogenase that uses flavin adenine dinucleotide (FAD) as a coenzyme (GDH-FAD) (manufactured by TOYOBO CO., LTD., product No.: GLD-351), the enzyme was dissolved, and thus a GDH solution was produced. Furthermore, 200 μL of RO water was added to 3.5 mg of 1-methoxy-5-methylphenazium methyl sulfate (m-PMS) (manufactured by DOJINDO LABORATORIES), and the compound was dissolved therein. Thus, an s-PMS solution was produced. 1 mL of RO water was added to 129 mg of nickel chloride to dissolve the salt, and thus a nickel solution was produced.
40 μL of the reaction solution was added to 10 μL each of an aqueous glucose solution at a concentration of 125 mg/dL, an aqueous glucose solution at a concentration of 250 mg/dL, and an aqueous glucose solution at a concentration of 1,000 mg/dL, and the mixtures were allowed to develop color. The spectra were measured with a spectrophotometer (measurement cell length: 50 μm) (n=1). […] Thus, the gradient (gradientsample) was determined.
40 μL of the control reaction solution was added to 10 μL each of an aqueous glucose solution at a concentration of 125 mg/dL, an aqueous glucose solution at a concentration of 250 mg/dL, and an aqueous glucose solution at a concentration of 1,000 mg/dL, and the mixtures were allowed to develop color. The spectra were measured with a spectrophotometer (measurement cell length: 50 μm) (n=1). For each of the spectra, the absorbance at 650 nm, which is the measurement wavelength (λmax) of WST-4, was measured, and the glucose concentration in the colored solution and the absorbance were plotted on the horizontal axis and the vertical axis, respectively. Thus, the gradient (gradientWST-4) was determined.
FIG. 2 is a graph showing the relationship between the glucose concentration and the absorbance of produced formazan in relation to the tetrazolium compound 1 and WST-4. […] Meanwhile, the gradient serves as an index for the color development intensity of each compound. Therefore, when the value obtained by dividing the gradientsample by the gradientWST-4 (gradientsample/gradientWST-4) is greater than one-fold, it is implied that the intensity of color development on the longer wavelength side is higher compared to WST-4, which is a well-known indicator reagent.

[4] = Evaluation of water-solubility (visual check for precipitate); assay type: physicochemical; conditions: RO water and 0.5 M MOPS pH 7.2, 200, 100, 20 mM, stirred 5 minutes; for solubility at 5 min: RO water / 0.5 M MOPS solution (1:1), aqueous buffer, thermodynamic from solid
Description: After the mixture was stirred for 5 minutes, a precipitate was checked by visual inspection. […] After the mixture was stirred for 5 minutes, a precipitate was checked by visual inspection. […] After the mixture was stirred for 5 minutes, a precipitate was checked by visual inspection.

Molecule	[(Abs6 h−Abs0 h)/6] value [1]	Maximum absorption wavelength (λmax) [2]	gradient (absorbance versus glucose concentration) ([3]; FIG. 2, compound 1 at its λmax with nickel, WST-4 at 650 nm without nickel)	Sensitivity, comparison with Comparative Example 5 (ratio) [3] [times]	Water-solubility [4]	Sensitivity, comparison with Comparative Example 5 (rating) [3]	solubility at 5 min [4] [mM]
2-benzothiazolyl-3-(4-carboxy-2-methoxyphenyl)-5-[4-(2-sulfoethylcarbamoyl)phenyl]-2H-tetrazolium [Comparative Example 5, reference compound]	about 0.01	No chelation	0.0026	1	◯ (a precipitate was seen in the 200 mM aqueous solution, but there was no precipitate in the 100 mM aqueous solution)		
COc1ccc(S(=O)(=O)O)cc1-[n+]1nc(-c2ccc(S(=O)(=O)O)cc2S(=O)(=O)[O-])nn1-c1nc2ccccc2s1 [Comparative Example 1, reference compound]		580 nm				Δ (the value of the ratio gradientsample/gradientWST-4 was greater than 1 and less than 1.5)	100 to 200 (≈ 62.6 to 125 mg/mL)
COc1ccc2nc(-n3nc(-c4ccc(S(=O)(=O)O)cc4S(=O)(=O)[O-])n[n+]3-c3cc(S(=O)(=O)O)ccc3OC)sc2c1 [Example 2]		600 nm				⊙ (gradientsample/gradientWST-4) was 2 or greater)	> 200
COc1ccc2nc(-n3nc(-c4ccc(S(=O)(=O)O)cc4S(=O)(=O)O)n[n+]3-c3cc(S(=O)(=O)[O-])c([N+](=O)[O-])cc3OC)sc2c1 [Example 3]		630 nm				◯ (the value of the ratio gradientsample/gradientWST-4 was 1.5 or greater and less than 2)	> 200
COc1ccc2nc(-n3nc(-c4ccc(S(=O)(=O)[O-])cc4S(=O)(=O)[O-])n[n+]3-c3ccc([N+](=O)[O-])cc3OC)sc2c1.[Na+] [Example 4]		650 nm				⊙ (gradientsample/gradientWST-4) was 2 or greater)	20 to 100
COc1ccc2nc(-n3nc(-c4ccc(O)cc4S(=O)(=O)[O-])n[n+]3-c3cc(S(=O)(=O)[O-])ccc3OC)sc2c1.[Na+] [Example 5]		630 nm				◯ (the value of the ratio gradientsample/gradientWST-4 was 1.5 or greater and less than 2)	100 to 200
COc1ccc2nc(-n3nc(-c4ccc(O)c(S(=O)(=O)[O-])c4)n[n+]3-c3cc(S(=O)(=O)[O-])ccc3OC)sc2c1.[Na+] [Example 6]		650 nm				⊙ (gradientsample/gradientWST-4) was 2 or greater)	20 to 100
COc1ccc2nc(-n3nc(-c4ccccc4S(=O)(=O)[O-])n[n+]3-c3ccc(S(=O)(=O)[O-])cc3)sc2c1.[Na+] [Example 7]		645 nm				⊙ (gradientsample/gradientWST-4) was 2 or greater)	100 to 200
COc1ccc2nc(-n3nc(-c4cc(S(=O)(=O)[O-])cc(S(=O)(=O)O)c4)n[n+]3-c3cc(S(=O)(=O)O)ccc3OC)sc2c1 [Example 8]		620 nm				◯ (the value of the ratio gradientsample/gradientWST-4 was 1.5 or greater and less than 2)	> 200
COc1ccc2nc(-n3nc(-c4cc(S(=O)(=O)O)cc(S(=O)(=O)O)c4)n[n+]3-c3ccc(OC)c(S(=O)(=O)[O-])c3)sc2c1 [Example 9]		640 nm				◯ (the value of the ratio gradientsample/gradientWST-4 was 1.5 or greater and less than 2)	> 200
COc1ccc2nc(-n3nc(-c4ccc(S(=O)(=O)O)cc4S(=O)(=O)[O-])n[n+]3-c3ccc(C(=O)O)cc3OC)sc2c1 [Example 10]		620 nm				◯ (the value of the ratio gradientsample/gradientWST-4 was 1.5 or greater and less than 2)	> 200
COc1ccc2nc(-n3nc(-c4cc(S(=O)(=O)[O-])cc(S(=O)(=O)O)c4)n[n+]3-c3cc(C(=O)O)ccc3OC)sc2c1 [Example 11]		605 nm				◯ (the value of the ratio gradientsample/gradientWST-4 was 1.5 or greater and less than 2)	> 200
COc1ccc2nc(-n3nc(-c4ccc(S(=O)(=O)O)cc4S(=O)(=O)[O-])n[n+]3-c3ccc(OC)c(C(=O)O)c3)sc2c1 [Example 12]		630 nm		2.4		⊙ (gradientsample/gradientWST-4) was 2 or greater)	> 200
COc1ccc(S(=O)(=O)O)cc1-[n+]1nc(-c2ccc(S(=O)(=O)O)cc2S(=O)(=O)[O-])nn1-c1nc2cc3c(cc2s1)OCO3 [Example 13]		625 nm		2.4		⊙ (gradientsample/gradientWST-4) was 2 or greater)	> 200
COc1ccc(S(=O)(=O)O)cc1-[n+]1nc(-c2ccc(S(=O)(=O)O)cc2S(=O)(=O)[O-])nn1-c1nc2cc3c(cc2s1)OCCO3 [Example 14]		610 nm		2.4		⊙ (gradientsample/gradientWST-4) was 2 or greater)	> 200
COc1ccc(-[n+]2nc(-c3ccc(S(=O)(=O)O)cc3S(=O)(=O)O)nn2-c2nc3cc4c(cc3s2)OCO4)cc1S(=O)(=O)[O-] [Example 17]		650 nm		2.4		⊙ (gradientsample/gradientWST-4) was 2 or greater)	> 200
COc1ccc(-[n+]2nc(-c3ccc(S(=O)(=O)O)cc3S(=O)(=O)O)nn2-c2nc3cc4c(cc3s2)OCCO4)cc1S(=O)(=O)[O-] [Example 19]		640 nm		2.4		⊙ (gradientsample/gradientWST-4) was 2 or greater)	> 200
CCOc1ccc2nc(-n3nc(-c4ccc(S(=O)(=O)O)cc4S(=O)(=O)O)n[n+]3-c3ccc(OC)c(S(=O)(=O)[O-])c3)sc2c1 [Example 20]		630 nm		2.4		⊙ (gradientsample/gradientWST-4) was 2 or greater)	> 200
COc1ccccc1-[n+]1nc(-c2ccc(S(=O)(=O)O)cc2S(=O)(=O)[O-])nn1-c1nc2ccccc2s1 [compound 4, reference compound]		580 nm				⊙ (gradientsample/gradientWST-4) was 2 or greater)	100 to 200 (≈ 54.6 to 109 mg/mL)

— US11739083B2, “Disposable sensor chip with reagent including 2-substituted benzothiazolyl-3-substituted phenyl-5-substituted sulfonated phenyl-2H-tetrazolium salt” (TERUMO KABUSHIKI KAISHA, priority 2016, dated 2023)
